Reference: PubChem BioAssay AID330 (DTP/NCI, 2004)
Where “and” joins values, the source holds several entries; their conditions need not be identical. Equal entries are not always repeated. Inconclusive results and toxic doses are left out.

System: P388 leukemia ip, CD2F1 mice, survival T/C
Experiment: NCI In Vivo Anticancer Drug Screen. Data for tumor model P388 Leukemia (intraperitoneal) in CD2F1 (CDF1) mice
Conditions: endpoint: median survival time, higher = longer survival
Outline: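 Mice carrying the transplanted tumor received test compound or vehicle. Survival was recorded in each group, and the value is the treated-group measurement divided by that of the vehicle-treated control group.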

[1] = dose: 50.0 mg/kg/injection, schedule: Q01DX005 (ip), vehicle: saline with Tween-80

SMILES: NC(=O)Nc1ccccc1O
- T/C (dose: 100.0 mg/kg/injection, schedule: Q01DX009 (ip), vehicle: saline with Tween-80): 98 % of control
- T/C (dose: 200.0 mg/kg/injection, schedule: Q01DX009 (ip), vehicle: saline with Tween-80): 117 % of control
- T/C (dose: 400.0 mg/kg/injection, schedule: Q01DX009 (ip), vehicle: saline with Tween-80): 107 % of control

SMILES: COC(=O)C1=C2c3cc4c(cc3CCN2C2(O)c3c(ccc(OC)c3OC)C(=O)C12C(=O)OC)OCO4 (stereo not given)
- T/C (dose: 50.0 mg/kg/injection, schedule: Q04DX002 (ip), vehicle: saline with Tween-80): 96 % of control
- T/C (dose: 100.0 mg/kg/injection, schedule: Q04DX002 (ip), vehicle: saline with Tween-80): 103 % of control
- T/C (dose: 200.0 mg/kg/injection, schedule: Q04DX002 (ip), vehicle: saline with Tween-80): 96 % of control

SMILES: COC(=O)/C(C#N)=C/c1ccc2c(c1)OCO2
- T/C (dose: 50.0 mg/kg/injection, schedule: Q01DX005 (ip), vehicle: Klucel (hydroxypropylcellulose) (HPC)): 100 % of control
- T/C (dose: 100.0 mg/kg/injection, schedule: Q01DX005 (ip), vehicle: Klucel (hydroxypropylcellulose) (HPC)): 97 % of control
- T/C (dose: 200.0 mg/kg/injection, schedule: Q01DX005 (ip), vehicle: Klucel (hydroxypropylcellulose) (HPC)): 100 % of control

SMILES: O=NNc1ccc([N+](=O)[O-])cn1
- T/C (dose: 3.12 mg/kg/injection, schedule: Q01DX009 (ip), vehicle: water): 107 % of control
- T/C (dose: 6.25 mg/kg/injection, schedule: Q01DX009 (ip), vehicle: saline): 106 % of control and 96 % of control
- T/C (dose: 6.25 mg/kg/injection, schedule: Q01DX009 (ip), vehicle: water): 96 % of control
- T/C (dose: 12.5 mg/kg/injection, schedule: Q01DX009 (ip), vehicle: saline): 122 % of control and 123 % of control
- T/C (dose: 12.5 mg/kg/injection, schedule: Q01DX009 (ip), vehicle: water): 102 % of control
- T/C (dose: 25.0 mg/kg/injection, schedule: Q01DX009 (ip), vehicle: water): 105 % of control and 88 % of control
- T/C (dose: 50.0 mg/kg/injection, schedule: Q01DX009 (ip), vehicle: saline): 176 % of control

SMILES: COC(=O)CCC(NC(=O)C(CCCCN)N(C(=O)OCc1ccccc1)C(=O)OCc1ccccc1)C(=O)OC (stereo not given)
- T/C [1]: 101 % of control
- T/C (dose: 100.0 mg/kg/injection, schedule: Q01DX005 (ip), vehicle: saline with Tween-80): 101 % of control
- T/C (dose: 200.0 mg/kg/injection, schedule: Q01DX005 (ip), vehicle: saline with Tween-80): 98 % of control

SMILES: COC(=O)NC1C(=O)OC2C1CC1OC12 (stereo not given)
- T/C (dose: 60.0 mg/kg/injection, schedule: Q01DX005 (ip), vehicle: saline with Tween-80): 101 % of control
- T/C (dose: 120.0 mg/kg/injection, schedule: Q01DX005 (ip), vehicle: saline with Tween-80): 100 % of control
- T/C (dose: 240.0 mg/kg/injection, schedule: Q01DX005 (ip), vehicle: saline with Tween-80): 101 % of control

SMILES: O=C1OC(/C=C/c2ccccc2)=NC/1=C\c1ccccc1
- T/C (dose: 60.0 mg/kg/injection, schedule: Q01DX005 (ip), vehicle: Klucel + Tween-80): 103 % of control
- T/C (dose: 120.0 mg/kg/injection, schedule: Q01DX005 (ip), vehicle: Klucel + Tween-80): 99 % of control
- T/C (dose: 240.0 mg/kg/injection, schedule: Q01DX005 (ip), vehicle: Klucel + Tween-80): 97 % of control

SMILES: Cc1cc(C)c(CSc2cc(N)nc(N)c2N)c(C)c1
- T/C (dose: 50.0 mg/kg/injection, schedule: Q01DX009 (ip), vehicle: Klucel (hydroxypropylcellulose) (HPC)): 104 % of control
- T/C (dose: 100.0 mg/kg/injection, schedule: Q01DX009 (ip), vehicle: Klucel (hydroxypropylcellulose) (HPC)): 107 % of control

SMILES: CCCCN(CCCC)CCNc1ccc(C)c2sc3ccc(Cl)cc3c(=O)c12
- T/C (dose: 12.5 mg/kg/injection, schedule: Q01DX005 (ip), vehicle: saline with Tween-80): 88 % of control
- T/C (dose: 25.0 mg/kg/injection, schedule: Q01DX005 (ip), vehicle: saline with Tween-80): 88 % of control
- T/C [1]: 89 % of control

SMILES: CCOC(=O)NN(C(=O)OCC)C(C)(C)C(C)=O
- T/C (dose: 100.0 mg/kg/injection, schedule: Q01DX001 (ip), vehicle: saline): 100 % of control
- T/C (dose: 200.0 mg/kg/injection, schedule: Q01DX001 (ip), vehicle: saline): 100 % of control and 106 % of control
- T/C (dose: 400.0 mg/kg/injection, schedule: Q01DX001 (ip), vehicle: saline): 100 % of control and 108 % of control

SMILES: O=c1c(N=Nc2ccc(Br)cc2)c(O)n(-c2ccc(Cl)cc2)c(=S)n1-c1ccc(Br)cc1
- T/C (dose: 100.0 mg/kg/injection, schedule: Q01DX001 (ip), vehicle: saline with Tween-80): 96 % of control
- T/C (dose: 200.0 mg/kg/injection, schedule: Q01DX001 (ip), vehicle: saline with Tween-80): 95 % of control
- T/C (dose: 400.0 mg/kg/injection, schedule: Q01DX001 (ip), vehicle: saline with Tween-80): 89 % of control

SMILES: CC1(C)OC(CC(=O)O)C23COC(C(=O)C4(C)C2CCC2(C)C(c5ccoc5)OC(=O)C5OC524)C13 (stereo not given)
- T/C (dose: 0.75 mg/kg/injection, schedule: Q01DX009 (ip), vehicle: saline + alcohol): 106 % of control
- T/C (dose: 1.5 mg/kg/injection, schedule: Q01DX009 (ip), vehicle: saline + alcohol): 99 % of control
- T/C (dose: 3.0 mg/kg/injection, schedule: Q01DX009 (ip), vehicle: saline + alcohol): 101 % of control
- T/C (dose: 6.0 mg/kg/injection, schedule: Q01DX009 (ip), vehicle: saline + alcohol): 101 % of control
